For series [1], the system named is Kuming mice. Put plainly: Mice hot plate method analgesic test. The format is in vivo. Here is the method: (§1) Analgesic efficacy of the subject compound is determined by using model derived from mice hot plate method and mice writhing method (Methodology of Pharmacological Experiment, edition II, Xu Shuyun, People Medical Publishing Company, 1991).
Experiment Animal: Kuming Mice (Female, 18-22 g)
(§2) • (1) Selection of normal mice: the test room temperature is controlled at about 22° C., temperature of the hot plate of an pain threshold dector is regulated to 55° C., the duration from the moment the mice is put on the hot plate to the moment the mice start to lick the hind paw is recorded as pain threshold value, the test is repeated twice at interval of 20 min, and the mice with average pain threshold value no more than 30 sec is qualified mice. • (2) Experimental mice: the qualified mice are randomly divided into groups each having 10 mice, and subjected to subcutaneous injection. • Each group is tested for mice pain response time once every 5, 15, 30, 50, and 60 minute after administration, and the medicine is believed to be effective which response time beyond 1 min. • Mice Writhing Assay • I-6 is administered via subcutaneous injection, then 0.6% acetic acid solution (10 ml/kg) is administered after 30 min, and the number of the mice writhing within 15 min is recorded. 3.
(In general: Thermal pain tests record how soon the animal reacts.)

Series [2] relates to Kunming mice. Put plainly: Acute toxicity test of compound I-6. It counts as in vivo. The conditions noted are these: peritoneal administration at 30 mg/kg. As for the experimental part: (§3) Acute toxicity of compound I-6 is determined according to Methodology of Pharmacological Experiment, edition II, Xu Shuyun (People's Medical Publishing House, 1991), and An Introduction of the Assessment for Novel Drugs, edition II, Qin Boyi (People's Medical Publishing House, 1999).
(§4) Kunming mice (body weight 18-22 g, female 6 weeks old, male 4-5 weeks) are provided, randomly divided into groups each having 20 mice (half female, half male). The mice are subjected to adaptive feeding for 1-2 days before administration. Compound I-6 is administered peritoneally for 4 dosage groups, 60 mg/kg, 50 mg/kg, 40 mg/kg, and 30 mg/kg. The mice are normally fed after administration, their conditions, such as drinking, feeding, excreting, activity, and hair color, are observed everyday, their body weights are weighed every other day, and the observation lasts for two weeks.

Series [3] can be described thus: Acute toxicity test of compound I-6. To be noted: both sexes, Kunming, mouse, in vivo, intraperitoneal; peritoneal administration, mice, observation two weeks. It counts as in vivo, mice. Here is the method: as §3, §4
In series [4] the test system is Kuming mice. The experiment in a line: Mice writhing assay (acetic acid) analgesic test. The format is in vivo. The conditions noted are these: subcutaneous injection, 0.6% acetic acid after 30 min, writhing within 15 min. As for the experimental part:
as §1, §2
On the technique in general: In writhing tests, fewer writhes than in controls are read as antinociception.

For series [5], the system named is Kuming mice. The experiment in a line: Influence of compound I-6 on physical dependence caused by morphine. The format is in vivo. To be noted: I-6 300 μg/kg peritoneally 10 min before morphine every day. As for the experimental part: Kuming mice (18-20 g, male) are selected and divided into physiological saline group, morphine group, and I-6+morphine group.
physiological saline group: subcutaneous injection, 0.2 mL for each mouse, continuous administration for 10 days.
(§5) morphine group: subcutaneous injection, administration according to an escalating dose schedule, 20, 40, 60, 80, 100 mg/kg, continuous administration for 10 days, two injections per day at 8 hours interval, administration with escalating concentration, and 100 mg/kg is maintained from the fifth injection until Day 10.
I-6+morphine group: subcutaneous injection of morphine according to 20, 40, 60, 80, 100 mg/kg, continuous administration for 10 days, two injections per day at 8 hours interval, administration with escalating concentration, and 100 mg/kg is maintained from the fifth injection until Day 10; 300 μg/kg of compound I-6 is administered peritonally 10 min before administration of morphine every day.
2 hours after the end administration on Day 10, each group is peritoneally administered with Naloxone 3 mg/kg, and jump times and weight reduction of mice within 20 min in each group are observed.

The subject of series [6] is Kuming mice. The experiment in a line: Analgesic tolerance test (hot plate, 9 days administration). It counts as in vivo. To be noted: I-6 25 μg/kg subcutaneous injection Day 1-9, hot plate. Here is the method:
Kuming mice (18-20 g, male) are selected for test, and divided into physiological saline group, morphine group, and I-6 group.
physiological saline group: subcutaneous administration, 0.2 mL for each mice.
Morphine group: Day 1-3, subcutaneous injection, 7 mg/kg • Day 4-7, subcutaneous injection, 10 mg/kg • Day 8-9, subcutaneous injection, 15 mg/kg I-6 group: Day 1-9, subcutaneous injection, 25 μg/kg
Hot plate method in mice is adopted as model, administration lasts for 9 days, analgesic effects before and after administration are determined every day, and if analgesic effect is attenuated after continuous administration of 3 days, the drug concentration will be increased, and if analgesic effect don't change, the drug concentration will not be changed.

Series [7] concerns the target μ-opioid receptor (Homo sapiens, UniProt P35372). The experiment in a line: Radioligand receptor binding assay, competition with [3H]diprenorphine, μ-receptor. As for the experimental part:
(§6) The experiment test tubes are divided into total binding tubes and non-specific binding tubes, and several groups of sample tubes added with competitive ligand in different concentrations are provided. The total binding tube is added with expressed membrane receptor protein equivalent to 20 μg and [^3H] diprenorphine (0.5 nM) (1.44 Pbq/mol broad spectrum opioid antagonist, Amersham), the corresponding non-specific binding tubes are further added with 1 μM Naloxone (broad spectrum opioid antagonist, Sigma), the sample tubes are added with different concentrations compounds which are to be screened, the final volume is regulated to 100 μl with 50 mM Tris(Amresco)-HCl (pH 7.4). Incubation is performed at 30° C. for 30 min, and the tubes are placed into ice water to stop reaction. Negative pressure filter is performed in Millipore sample collector via GF/(Whatman) glass fiber filter paper. Ice cold 50 mM Tris-HCl (pH 7.4) is used to wash the filter paper for three times, each for 4 ml; Dry the filter paper and place it in 0.5 ml Eppendorff tube, and add 0.5 ml of lipophilic scintillator liquid (Reagent No. 1 Factory Of Shanghai Chemical Reagent Co. Ltd). Beckman LS 6500 multifunctional liquid scintillation counter is adopted for measuring radiation intensity, calculating inhibition rate is calculated, each concentration has three duplicated tubes, and each tube is independently tested for 3-4 times.
(§7) IC50 value is calculated by software Prism 4.0.
(§8) Ki=IC50/(1+[L]/Kd), ([L] is the concentration of added marked ligand, and Kd is equilibrium dissociation constant of radioligand).

Series [8] concerns Kuming mice. Put plainly: Physical dependence test after chronic administration (Naloxone-induced jumping and weight reduction). The conditions noted are these: escalating 50-300 μg/kg s.c. twice daily for 10 days, then Naloxone 3 mg/kg peritoneally. The format is in vivo. As for the experimental part: Kuming mice (18-20 g, male) are selected, and divided into physiological saline group, morphine group, and I-6 group.
physiological saline group: subcutaneous injection, 0.2 mL for each mice, continuous administration for 10 days.
as §5
I-6 group: subcutaneous injection, administration according to an escalating dose schedule, 50, 100, 150, 200, 300 μg/kg, continuous administration for 10 days, two injections per day at 8 hours interval, administration with escalating concentration, and 300 μg/kg is maintained from the fifth injection until Day 10.
2 hours after the end administration on the Day 10, each group is peritoneally administered with Naloxone 3 mg/kg, and jump times and weight reduction of mice within 20 min in each group are observed.

For series [9], the target named is κ-opioid receptor (Homo sapiens, UniProt P41145). The experiment in a line: Radioligand receptor binding assay, competition with [3H]diprenorphine, κ-receptor. Here is the method: as §6, §7, §8

For orientation: LD50 means the dose expected to kill half of the subjects tested. A word on the Ki: it is a dissociation constant, usually derived from enzyme kinetics or from competition with a known ligand. A low value points to a stronger hold on the target. Usually IC50 stands for the concentration needed to halve the response being measured. A lower IC50 goes with greater potency in that assay. The term inhibition denotes the percentage by which the read-out fell short of the control. For the compound `O=C1CC(C(=O)N2CCc3ccccc3C2CN2CCCC2)c2cc(Cl)ccc21` (stereo not shown) [I-6, 1-(pyrrolidine-1-methyl)-2-(6-chloro-2,3-dihydro-inden-3-keto-1-carbonyl)-1,2,3,4-tetrahydroisoquinoline], the “analgesic efficacy compared with morphine” value in series [1] (mice hot plate method and mice writhing method) is “powerful analgesic efficacy”. Besides, the “Analgesic experiment result, Mice hot plate method” value in series [1] (subcutaneous injection, hot plate 55° C., value with range in brackets) is listed as 25.000(18.675-33.467) ug/kg. For the same compound, the “influence on drinking, feeding, excreting, activities and hair color” value in series [2] was “no influence”. The 50% lethal dose (LD50) at 2 weeks in series [3] stood at 40.1 mg/kg. For the same compound, the “Analgesic experiment result, Mice writhing assay” value in series [4] is listed as 3.313(1.775-6.183) ug/kg. Moreover, in series [5] (10 days), the “effect on physical dependence caused by morphine” value is reported as “can resist physical dependence caused by morphine”. Besides, the “jump times of Naloxone-induced mice” value in series [5] (Naloxone 3 mg/kg on Day 10) was “significantly reduce jump times”. Moreover, the analgesic tolerance entry in [6] is reported as “does not produce significant tolerance phenomena”. The Ki in [7] (Ki=IC50/(1+[L]/Kd)) is 668 nM; in [9] (Ki=IC50/(1+[L]/Kd)), 0.0299 nM. Further, the IC50 in [7] (competition binding, μ-opioid receptor) was determined as 2000 nM; in series [9] (competition binding, κ-opioid receptor), 0.105 nM. Also, the “receptor selectivity μKi/κKi” value in series [7] (ratio of μ Ki to κ Ki) stood at 22341. Further, the “physical dependence after continuous administration” value in series [8] is “causes no physical dependence like morphine”. In series [9] (competition binding with κ-receptor, compound at 1 × 10^−5 M, [3H]diprenorphine 0.5 nM), this compound yielded a dpm of 201.00 dpm. Further, in series [9] (compound at 1 × 10^−5 M, read-out: inhibition rate %), the inhibition at 10 µM was 100%.

The values above are taken from US7820692B2, “Tetrahydro isoquinoline derivatives, preparation methods and medicinal uses thereof” (China Pharmaceutical University, priority 2006, dated 2010).
